The values below come from US9004162B2, “Methods of stimulating acetoclastic methanogenesis in subterranean deposits of carbonaceous material” (Transworld Technologies Inc., priority 2012, dated 2015).

This assay relates to microorganism consortium in the subterranean formation. How it is done:
Field tests were conducted on a mature coal-bed methane natural gas well in the Powder River Basin region in Wyoming. […] Total injection volume was 975,450 gallons of formation water, as well as 575.7 lbs. of sodium acetate trihydrate and 2404.7 lbs. of anhydrous sodium acetate. The effective average concentration of acetate in the injection water was 4.06 mM. In the pretreatment period, well 23M-2283 was used to access a microorganism consortium in the subterranean formation and obtain samples for microorganism population analysis.

In the case of `CC(=O)[O-].[Na+]` [acetate amendment, sodium acetate], for the setting “after acetate amendment introduced in situ (effective average 4.06 mM acetate in injection water), pretreatment 4.2×10^4 cells/ml”, the “total microbial population density” value is recorded as 1.5×10^6 cells/ml. Further, the “acetoclastic methanogens as share of total archaea population” value (at some points during natural gas recovery operations following the two-week period) is approximately 100%. In addition, the “acetoclastic methanogens as share of total archaea” value (two weeks after introduction of the amendment, pretreatment ~20%) is reported as “greater than 90%”. For the same compound, where the note is “two weeks after introduction of the amendment, pretreatment ~80%”, the “hydrogenotrophic methanogens as share of total archaea” value was “less than 10%”.
